Source: patent US5684017A, “Benzenesulfonylimine derivatives as inhibitors of IL-1 action” (Merrell Pharmaceuticals Inc., priority 1996, dated 1997)

Legend:
[1] = tested on: interleukin-1 beta (IL-1β) release (production) by human peripheral blood monocyte-derived macrophages; experiment: Endotoxin-Induced Interleukin-1 Beta Release by Human Macrophages; assay type: cell-based; settings: Macrophage, endotoxin 20 ng/mL (Salmonella typhimurium Re-mutant), compound 1 h before stimulation, supernatants after 24 h, ELISA
Experimental: (§1) The compounds of Formula I inhibit IL-1 action. One mechanism for inhibiting IL-1 action is to inhibit IL-1 production. Inhibition of IL-1 production was tested using lipopolysaccharide (LPS) stimulated macrophages. Inhibition of IL-1 induced production of cytokines was tested by measuring the inhibition of TNFα (tumor necrosis factor alpha) synthesis from IL-1 stimulated macrophages. The protocols for these test procedures are described below.
Endotoxin-Induced Interleukin-1 Beta Release by Human Macrophages
The objective of this test is to determine the inhibitory concentrations for the test compounds against endotoxin-induced interleukin-1 beta (IL-1β) release (production) by human peripheral blood monocyte-derived macrophages.
The source of the human peripheral blood monocyte-derived macrophages is as follows:
Venous blood is collected from healthy volunteers in 10 mM sodium citrate (2 mL sterile sodium citrate for 40 mL blood). Mononuclear cells are isolated with the Leucoprep tubes (Becton Dickenson, product number 2752 or 2751) spun at 1500 g for 15 minutes. Aliquots of 3×10^6 mononuclear cells are added to 24-well tissue culture plates (Corning) in RPMI-1640. After one hour incubation at 37° C., non-adherent cells are gently rinsed off. […]
The IL-1β concentration in the culture supernatant is calculated by a standard curve generated from a series of known concentrations. […]

[2] = Interleukin-1-Beta-Induced Tumor Necrosis Factor Alpha Release by Human Macrophages; assay type: cell-based; settings: Macrophage; recombinant human IL-1β 20 ng/mL; compound 1 h before stimulation; supernatants after 24 h, ELISA; read-out: IC50 (IL-1β-induced TNFα release)
Experimental: as §1
Interleukin-1-Beta-Induced Tumor Necrosis Factor Alpha Release by Human Macrophages
To determine the inhibitory concentrations for the test compounds against interleukin-1 beta (IL-1β)-induced tumor necrosis factor alpha (TNFα) release by human peripheral blood monocyte-derived macrophages. It should be understood that this is a test of the ability of the test compounds to modulate, i.e. inhibit, the activity of IL-1β by measuring the inhibition of IL-1β induced release of TNFα.
Source Human Peripheral Blood Monocyte-Derived Macrophages:
Venous blood is collected form healthy volunteers in 10 mM sodium citrate (2 mL sterile sodium citrate for 40 mL blood). Mononuclear cells are isolated with the Leucoprep tubes (Becton Dickinson, product number 2752 or 2751) spun at 1500 g for fifteen minutes. Aliquots of 3×10^6 mononuclear cells are added to 24-well tissue culture plates (Corning) in RPMI-1640. After 1 hour incubation at 37° C., non-adherent cells are gently rinsed off. The adherent cells (macrophages) are given back fresh medium RPMI-1640, 1 mL/well.
Macrophage monolayer cultures are pretreated with compounds one hour prior to IL-1β (20 ng/mL, recombinant human IL-1β) stimulation. Compounds dissolved in 95% ethanol or DMSO would require additional monolayer cultures treated with 10 or 2.5 μl 95% ethanol or DMSO, respectively. Culture supernatants are collected 24 hours later and are tested for TNF-α using a commercial ELISA kit (Cistron).
The TNF-α concentration in the culture supernatant is calculated by a standard curve generated from a series of known concentrations. Potency of compound is reported in IC50 (UM).

[3] = mammal having an arthritic condition; U.S. Pat. No. 5,122,534; cited from earlier work
[4] = tested on: IL-1 production; settings: cited from earlier work

Row | Structure (SMILES) | IC50 [1] [nM] | IC50 [2] [nM] | serum LDL cholesterol [3] | serum triglycerides [3] | total level of serum cholesterol [3] | block IL-1 production [4]
1 | O=C(c1ccccc1)c1cc(=NS(=O)(=O)c2ccccc2)c2c(Cl)cc(Cl)cc2[nH]1 [5,7-Dichloro-2-benzoyl-4-[benzenesulfonylimino]-1,4-dihydroquinoline] | 2000 | 3000 |  |  |  | 
2 | CC(=O)c1cc(=NS(=O)(=O)c2ccccc2)c2c(Cl)cc(Cl)cc2[nH]1 [5,7-Dichloro-2-acetyl-4-[benzenesulfonylimino]-1,4-dihydroquinoline] | 4000 | 8000 |  |  |  | 
3 | NC(=O)N1C(=O)/C(=C(\O)c2cccs2)c2cc(Cl)ccc21 [Tenidap] |  |  | reduces | reduces | reduces | known to block IL-1 production
4 | O=C(c1ccccc1)c1cc(=NS(=O)(=O)c2ccccc2)c2ccccc2o1 [2-Benzoyl-4-benzenesulfonylimino-4H-chromene] |  | 1300 |  |  |  | 
